Measurements taken from patent US8227516B2, “Compounds as histone deacetylase inhibitors” (4SC Discovery GmbH, priority 2002, dated 2012).
Read-outs that look alike come from different tables or passages of the source.

Tests used:
BV-173 cells = test: Measurement of apoptosis, FACS sub-G1 by propidium iodide staining; format: cell-based; details: with Z-VAD, 24 hours
From the text: Measurement of Apoptosis. FACS analysis of the cell cycle by propidium iodide (PI) staining. The cell cycle can be divided into four different sections: During G0/1-phase cells are in senescence or proliferate, in S-phase cells start replicating their DNA, and during G2- and M-phase cells undergo mitosis. […] Degradation of DNA is a marker for apoptosis. The sub-G1 area indicates the hypodiploid DNA peak corresponding to cells with fragmented DNA undergoing apoptosis Using a dye that intercalates with DNA (such as propidium iodide—PI) the cellular DNA content was determined. Between 5×10^5-1×10^6 cells were seeded out in cell culture dishes and treated for the desired time with the desired amount of test compound. After the incubation cells were harvested, washed in cold PBS, and the cell pellet was resuspended in 1 ml 70% ethanol (−20° C.). These cell pellets may be shelved for several month.
For PI staining 3 ml cold sodium citrate solution (38 mM, pH 7.4) was added, cells were pelleted and stained with 500 μl sodium citrate solution (38 mM, pH 7.4) containing 50 μg/ml PI and 5 μg/ml RNase. After a 30 minute incubation time at 37° C. in darkness, cells were analyzed via FACS analysis. The sub-G1-peak constitutes the amount of apoptotic cells.

[1] = tested on: HDAC-dependent transcriptional repression in reporter cell line UAS TK-luc (293T cells); test: Transcriptional reporter gene assay (UAS TK luciferase, Gal4-repressor fusion); format: cell-based; details: for concentration at which induction of luciferase reporter gene expression starts: 24 hours treatment; for fold induction at 8 µM: Homo sapiens, HEK-293T, read-out: fold induction of luciferase reporter gene expression
Procedure: Depicted is the fold induction of luciferase expression after treatment of cells at the indicated concentrations of Compounds 1, 2 and 3.
Transcriptional reporter gene assay. The transcriptional assay for repressor activity exploits activation and derepression of a Gal4-dependent reporter gene (Hildebrand et al., 2001, J Biol Chem 276, 9889-95; Maurer et al., 2002, Blood 99, 2647-52). This assay is performed with specifically constructed permanent cell lines. 293T cell were stably transfected with a UAS TK luciferase reporter plasmid (Heinzel et al., 1997 Nature 387, pp 43-48) and an expression plasmid for the Gal4 DNA binding domain fused to an HDAC-dependent repressor molecule. While Gal4 fusion proteins repress this activity, HDAC inhibitors induce relief of this repression which can be detected as an increase in reporter gene activity (e.g. by luciferase activity detection assay).
Addition of Compounds 1, 2 and 3 relieve this repression as measured by increased expression and activity of luciferase in lysates of treated cells after 24 hours. Both, Compound 1 and 2 induce luciferase reporter gene expression after stimulation of cells for 24 hours starting at a concentration of 8 μM (2-3 fold) with a maximum induction of more than 20 fold at 200 μM. Compound 3, however, induces expression of reporter gene already at a concentration of 1.6 μM with a maximum induction of almost 40 fold at 40 μM.

[2] = tested on: histone H4 acetylation in 293T cells; test: Induction of histone H4 hyperacetylation, Western Blot; format: cell-based; details: 6 hours
From the text: Induction of histone hyperacetylation. These acetylated histones can be detected by Western Blot analysis of whole cell extracts from histone deacetylase inhibitor-treated 293T cells using antibodies specific for the acetylated N-terminal lysine residues of histones H4 (Göttlicher et al., 2001, EMBO J. 20, 6969-78).
Since histone deacetylase inhibitors shift the enzymatic balance between histone acetyl transferases (HAT's) and histone deacetylases (HDAC's) towards HAT's by blocking HDAC's, they induce the accumulation of N-terminally hyperacetylated histones H4. This can be seen in FIG. 2 by the induction of histone hyperacetylation after treatment of 293T cells for 6 hours with Compounds 1, 2 and 3. Hyperacetylation can be seen with Compounds 1 and 2 at a concentration as low as 1.6 μM with a maximum induction at […], whereas compound 3 induces hyperacetylation starting at 320 nM.

[3] = tested on: p21 expression in K562 cells; test: Protein expression profiling, Western Blot: p21 induction; format: cell-based; details: 36 hours
From the text: (§1) Protein expression profiling. The expression pattern induced by histone deacetylase inhibitors can be monitored by Western Blot analysis with antibodies against p21 and BCL-XL using whole cell extracts of cells treated with the respective compounds at the indicated concentrations. Modulation of protein expression is exemplified by the induction of expression of the cell cycle inhibitor/tumor suppressor p21 and the suppression of expression of the anti-apoptotic molecule BCL-XL.

[4] = tested on: human tumor cell lines of breast, colon, pancreas and prostate origin; test: Growth inhibition of tumor cell lines (SRB assay); format: cell-based; details: various cancer cell lines, 72 hours
Procedure: Growth inhibition of tumor cell lines. The reduction in cellular biomass was measured by SRB-assay. For this assay cells were seeded in 96 well culture dishes at densities between 3000 and 8000 cells per well. After recovery of 24 hours cells were cultured for 48-72 hours in the absence or presence of the indicated concentrations of compounds. Synergistic reduction in total cellular biomass was assayed through SRB-assay by adding the compounds in the medium at the indicated concentrations and cultivate the cells for further 48 hours.
Cells were fixed with cold Trichloracetat (TCA) producing a final TCA concentration of 10%. After 1 hour of incubation at 4° C. the cells were washed five times with water and air dried. Fixed cells were stained for 30 minutes with 0.4% (wt/vol) Sulforhodamine B (SRB) dissolved in 1% acetic acid and washed four times with 1% acetic acid to remove unbound dye. After air drying bound dye was solubilized with 10 mM unbuffered Tris base (pH 10.5) for 5 minutes. Optical densities (OD) were read on a Molecular Devices Versa Max tunable microplate reader at 520-550 nm. Four test wells for each dose-response were set in parallel with 12 control wells per cell line. Measurement of the cell population density at time 0 (To; the time at which the drug was added) was also made from 12 reference wells of cells fixed with TCA just prior to drug addition to the test plates. Background OD of complete medium with 5% FBS fixed and stained as described above was also determined in 12 separate wells. From the unprocessed OD data from each microtiter plate the background OD measurements (i.e. OD of complete medium plus stain and OD of cells at T0) were subtracted thus giving the reduction of cellular biomass of the cells.

[5] = tested on: HDAC activity in nuclear extracts from HeLa cells; test: In vitro HDAC activity in HeLa nuclear extracts (Fluor de Lys); format: biochemical; details: read-out: concentration giving 50% reduction of HDAC activity
From the text: Relative HDAC activity is shown as percent of activity of untreated nuclear extracts.
(§2) In vitro inhibition of recombinant HDAC's. The determination of histone deacetylase activity in HeLa nuclear extracts or recombinant HDAC proteins from High5 insect cells is based on the specific deacetylation of an artificial substrate (Fluor de Lys, Biomol). The substrate turn over may be detected and quantified by fluorometry. By addition of a potential HDAC inhibitor the hydrolysis of the substrate is constrained resulting in a decreased fluorometric signal. IC50 values may be calculated from dose-response curves.
(§3) The assay is separated in two steps: in the first step the substrate (Fluor de Lys/Biomol KI-104) is hydrolysed by histone deacetylases. In step two HDAC activity is terminated and the fluorophore is activated by the addition of a developer (Developer/Biomol KI-105). Nuclear extracts from HeLa cells (Biomol KI-140) or recombinant proteins and the potential HDAC inhibitor are mixed with reaction buffer (Biomol KI143) to a total volume of 25 μl per well of a 96 well plate. 25 μl substrate (1:100 dilution in reaction buffer) per well are added to start the reaction. A negative control without histone deacetylase activity and a positive control without HDAC inhibitor are treated likewise. The reaction is stopped after 15-60 min. by adding 50 μl developer (1:20 dilution in reaction buffer). After another 15 min. incubation time at room temperature the fluorescence signal is stable for 60 min and may be detected by a fluorescence reader (excitation filter: 390 nm, emission filter: 460 nm).

[6] = tested on: BCL-XL expression in K562 cells; test: Protein expression profiling, Western Blot: BCL-XL down-regulation; format: cell-based; details: 36 hours
From the text: as §1

recombinant HDAC8 = target: T1, recombinant HDAC8 (Homo sapiens, UniProt Q9BY41); test: In vitro inhibition of recombinant HDAC8 (Fluor de Lys); format: biochemical; details: read-out: concentration giving 50% reduction of HDAC activity
T1 construct: made in house; host or cells: High5 insect cells
T1 sequence (Q9BY41 1-377): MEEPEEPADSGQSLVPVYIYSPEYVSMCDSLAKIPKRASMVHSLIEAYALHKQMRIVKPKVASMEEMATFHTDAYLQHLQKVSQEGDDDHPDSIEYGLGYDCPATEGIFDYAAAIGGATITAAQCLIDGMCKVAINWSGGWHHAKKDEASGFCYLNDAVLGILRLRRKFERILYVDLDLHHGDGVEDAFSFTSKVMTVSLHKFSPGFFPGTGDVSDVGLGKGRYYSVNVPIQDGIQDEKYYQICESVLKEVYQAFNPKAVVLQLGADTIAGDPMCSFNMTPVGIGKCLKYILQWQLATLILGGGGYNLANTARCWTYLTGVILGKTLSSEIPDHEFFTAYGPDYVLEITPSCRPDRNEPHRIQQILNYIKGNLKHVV
From the text: (§4) Relative HDAC activity is shown as percent of activity of untreated HDAC enzymes.
as §2
as §3, with “A negative control without histone deacetylase activity and a positive control without HDAC inhibitor are treated likewise. The reaction is stopped after 15-60 min. by adding 50 μl developer (1:20 dilution in reaction buffer).” left out

recombinant HDAC6 = target: T2, recombinant HDAC6 (Homo sapiens, UniProt Q9UBN7); test: In vitro inhibition of recombinant HDAC6 (Fluor de Lys); format: biochemical; details: read-out: concentration giving 50% reduction of HDAC activity
T2 construct: made in house; host or cells: High5 insect cells
T2 sequence (Q9UBN7 1-1215): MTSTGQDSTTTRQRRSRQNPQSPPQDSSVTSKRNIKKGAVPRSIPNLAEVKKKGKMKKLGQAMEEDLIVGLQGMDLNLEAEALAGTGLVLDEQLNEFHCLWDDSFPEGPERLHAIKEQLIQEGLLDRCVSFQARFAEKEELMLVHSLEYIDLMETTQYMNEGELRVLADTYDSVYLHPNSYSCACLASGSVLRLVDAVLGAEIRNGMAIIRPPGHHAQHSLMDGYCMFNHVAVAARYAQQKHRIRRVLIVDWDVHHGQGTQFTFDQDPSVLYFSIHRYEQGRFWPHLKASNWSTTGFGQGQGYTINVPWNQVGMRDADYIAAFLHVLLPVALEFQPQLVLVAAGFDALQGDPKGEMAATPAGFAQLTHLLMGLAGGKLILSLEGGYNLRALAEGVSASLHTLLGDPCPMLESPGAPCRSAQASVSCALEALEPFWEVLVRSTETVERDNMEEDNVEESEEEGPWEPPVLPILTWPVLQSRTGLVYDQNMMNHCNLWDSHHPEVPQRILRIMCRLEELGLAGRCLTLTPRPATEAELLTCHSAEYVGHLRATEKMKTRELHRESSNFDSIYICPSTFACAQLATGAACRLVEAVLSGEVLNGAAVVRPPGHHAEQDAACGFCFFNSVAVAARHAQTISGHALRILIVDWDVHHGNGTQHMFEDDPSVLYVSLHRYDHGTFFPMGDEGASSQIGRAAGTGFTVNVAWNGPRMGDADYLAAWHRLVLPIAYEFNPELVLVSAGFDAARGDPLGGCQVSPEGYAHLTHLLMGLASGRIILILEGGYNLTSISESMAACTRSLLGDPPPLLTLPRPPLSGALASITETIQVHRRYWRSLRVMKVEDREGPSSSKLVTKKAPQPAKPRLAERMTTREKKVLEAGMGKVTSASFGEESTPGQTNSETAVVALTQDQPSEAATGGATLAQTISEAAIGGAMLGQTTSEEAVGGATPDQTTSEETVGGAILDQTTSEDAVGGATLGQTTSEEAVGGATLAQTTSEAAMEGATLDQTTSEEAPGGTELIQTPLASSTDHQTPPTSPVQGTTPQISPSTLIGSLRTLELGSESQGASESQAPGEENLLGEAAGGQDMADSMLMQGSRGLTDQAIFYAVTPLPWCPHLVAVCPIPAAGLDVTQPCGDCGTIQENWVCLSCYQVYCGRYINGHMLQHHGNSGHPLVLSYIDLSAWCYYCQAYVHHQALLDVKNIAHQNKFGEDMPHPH
From the text: as §4, §2
as §3, with “A negative control without histone deacetylase activity and a positive control without HDAC inhibitor are treated likewise. The reaction is stopped after 15-60 min. by adding 50 μl developer (1:20 dilution in reaction buffer).” left out

recombinant HDAC1 = target: T3, recombinant HDAC1 (Homo sapiens, UniProt Q13547); test: In vitro inhibition of recombinant HDAC1 (Fluor de Lys); format: biochemical; details: read-out: concentration giving 50% reduction of HDAC activity
T3 construct: made in house; host or cells: High5 insect cells
From the text: as §4, §2
as §3, with “A negative control without histone deacetylase activity and a positive control without HDAC inhibitor are treated likewise. The reaction is stopped after 15-60 min. by adding 50 μl developer (1:20 dilution in reaction buffer).” left out

[7] = read-out: concentration inducing 50% growth arrest (IC50), mean over cell lines
[8] = read-out: concentrations inducing 50% growth arrest (IC50), range over cell lines

T3 sequence (Q13547 whole entry, species assumed): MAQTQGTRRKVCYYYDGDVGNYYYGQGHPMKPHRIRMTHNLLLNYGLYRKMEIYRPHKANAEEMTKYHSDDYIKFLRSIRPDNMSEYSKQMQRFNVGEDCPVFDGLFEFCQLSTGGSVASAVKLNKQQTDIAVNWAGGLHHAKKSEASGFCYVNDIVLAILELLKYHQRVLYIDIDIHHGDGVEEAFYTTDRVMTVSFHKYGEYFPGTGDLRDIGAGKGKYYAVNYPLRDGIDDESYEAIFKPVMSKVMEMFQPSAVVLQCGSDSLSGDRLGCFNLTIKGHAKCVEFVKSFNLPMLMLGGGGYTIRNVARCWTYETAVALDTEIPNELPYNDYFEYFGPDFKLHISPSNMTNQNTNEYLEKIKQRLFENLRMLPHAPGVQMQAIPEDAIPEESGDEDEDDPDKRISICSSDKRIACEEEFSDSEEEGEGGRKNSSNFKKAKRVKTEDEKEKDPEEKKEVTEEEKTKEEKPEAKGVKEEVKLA

IC50 [4, 7] [µM]	IC50 [4, 8] [µM]	IC50 [5] [µM]	IC50 (recombinant HDAC8) [µM]	IC50 (recombinant HDAC6) [µM]	IC50 (recombinant HDAC1) [µM]	Structure (SMILES)	apoptotic process in the presence of pan-caspase inhibitor Z-VAD (BV-173 cells)	concentration at which induction of luciferase reporter gene expression starts [1] [µM]	fold induction at 8 µM ([1]; 24 hours)	concentration of maximum induction of histone H4 hyperacetylation [2] [µM]	lowest concentration at which histone H4 hyperacetylation is seen [2] [µM]	concentration inducing p21 expression [3] [µM]	concentration inducing BCL-XL downregulation [6] [µM]	maximum induction of luciferase reporter gene expression ([1]; at 40 μM, 24 hours) [fold]	concentration at which histone H4 hyperacetylation starts [2] [nM]
33	8 to 70	14.7				O=C(CCC1CCCC1)NO [Compound 1, 3-Cyclopentyl-N-hydroxy-propionamide]	completely blocked	8	2 to 3	40	1.6	40	200		
15	5 to 26	6.1				O=C(CCC1CCCCC1)NO [Compound 2, 3-Cyclohexyl-N-hydroxy-propionamide]	completely blocked	8	2 to 3	40	1.6	8	8		
2.6	0.5 to 8	0.9	0.3 to 0.4	0.3 to 0.4	0.3 to 0.4	O=C(C=CC1CCCCC1)NO [Compound 3, 3-Cyclohexyl-N-hydroxy-acrylamide]	completely blocked	1.6				8	8	~40	320
